Measurements taken from patent US12673954B2 (BRISTOL-MYERS SQUIBB COMPANY, priority 2021, dated 2026).
Where two headings read alike, the source gives them in different places.

Key:
[1] = system: IRF pathway, THP1-Dual™ cells; assay: STING reporter assay in THP1-Dual cells, IRF pathway (Lucia luciferase, QUANTI-Luc); assay type: cell-based, human; details: THP1-Dual cells, 10% human plasma, 20 hours, Lucia luciferase, 100% activation = 100 μM cGAMP, read-out: IRF (EC50 μM)
Method in brief: (§1)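 THP-1-derived dual-reporter cells treated with serially diluted compounds (final top concentration 100 μM) for 20 h at 37° C. NF-κB read as SEAP via QUANTI-Blue at OD620; IRF read as Lucia luminescence via QUANTI-Luc after 5 min. 100% activation set by 100 μM cGAMP, baseline by DMSO.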

[2] = system: NF-κB pathway, THP1-Dual™ cells; assay: STING reporter assay in THP1-Dual cells, NF-κB pathway (SEAP, QUANTI-Blue); assay type: cell-based, human; details: THP1-Dual cells, 10% human plasma, 20 hours, SEAP, 100% activation = 100 μM cGAMP, read-out: NFkB (EC50 μM)
Method in brief: as §1

Compound	EC50 ([1]; Homo sapiens, THP1-Dual, 20 h) [µM]	EC50 ([2]; Homo sapiens, THP1-Dual, 20 h) [µM]	EC50 [1] [µM]	EC50 [2] [µM]
COC(=O)c1cccc2cc(CN3Cc4ccnc(F)c4C3=O)oc12 [EXAMPLE 4, Methyl 2-((4-fluoro-3-oxo-1,3-dihydro-2H-pyrrolo[3,4-c]pyridin-2-yl)methyl)benzofuran-7-carboxylate]	13	14		
Cc1ccc2cc(CNC(=O)c3cnn4cccnc34)oc2c1C(=O)OCC(F)(F)F [EXAMPLE 287, 2,2,2-Trifluoroethyl 6-methyl-2-((pyrazolo[1,5-a]pyrimidine-3-carboxamido)methyl)benzofuran-7-carboxylate]	12	18		
C[C@H](NC(=O)c1cnn2cccnc12)c1cc2cc(Cl)cc(C(=O)OCC(F)(F)F)c2o1 [EXAMPLE 266, 2,2,2-Trifluoroethyl (S)-5-chloro-2-(1-(pyrazolo[1,5-a]pyrimidine-3-carboxamido)ethyl)benzofuran-7-carboxylate]	3.1	2.6		
O=C(OCC(F)(F)F)c1cc(Cl)cc2cc(Cn3ccc4ccncc4c3=O)oc12 [EXAMPLE 372, 2,2,2-Trifluoroethyl 5-chloro-2-((1-oxo-2,7-naphthyridin-2(1H)-yl)methyl)benzofuran-7-carboxylate]	3.7	4.6		
O=C(OCC(F)(F)F)c1cc(Cl)cc2c(Cl)c(CNC(=O)c3cnn4cccnc34)oc12 [EXAMPLE 294, 2,2,2-Trifluoroethyl 3,5-dichloro-2-((pyrazolo[1,5-a]pyrimidine-3-carboxamido)methyl)benzofuran-7-carboxylate]	0.8	0.93		
O=C(OCC(F)(F)C(F)F)c1cccc2cc(CN3CCc4ccncc4C3=O)oc12 [EXAMPLE 213, 2,2,3,3-Tetrafluoropropyl 2-((1-oxo-3,4-dihydro-2,7-naphthyridin-2(1H)-yl)methyl)benzofuran-7-carboxylate]	79	86		
CC(OC(=O)c1cc(F)cc2cc(Cn3cnc4ccncc4c3=O)oc12)C(F)(F)F (centres unmarked) [EXAMPLE 365, 1,1,1-Trifluoropropan-2-yl 5-fluoro-2-((4-oxopyrido[4,3-d]pyrimidin-3(4H)-yl)methyl)benzofuran-7-carboxylate]			7.5	4.4
Cc1cc(C(=O)O)c2oc(C(C)NC(=O)c3cnn4cccnc34)cc2c1 (racemic) [EXAMPLE 186, 5-Methyl-2-(1-(pyrazolo[1,5-a]pyrimidine-3-carboxamido)ethyl)benzofuran-7-carboxylic acid]			84	> 100
COC(=O)c1cccc2cc(Cn3ccc4ccncc4c3=O)oc12 [EXAMPLE 7, Methyl 2-((1-oxo-2,7-naphthyridin-2(1H)-yl)methyl)benzofuran-7-carboxylate]	4.3	4.1		
[2H]C([2H])([2H])OC(=O)c1cccc2cc(CN3CCc4ccncc4C3=O)oc12 [EXAMPLE 353, Methyl-D3 2-((1-oxo-3,4-dihydro-2,7-naphthyridin-2(1H)-yl)methyl)benzofuran-7-carboxylate]	10	18		
COC(=O)c1cc(C)cc2c(C)c(CNC(=O)c3cnn4cccnc34)oc12 [EXAMPLE 122, Methyl 3,5-dimethyl-2-((pyrazolo[1,5-a]pyrimidine-3-carboxamido)methyl)benzofuran-7-carboxylate]	0.53	0.54		
COC(=O)c1cccc2c(Cl)c(CN3CCc4ccncc4C3=O)oc12 [EXAMPLE 21, Methyl 3-chloro-2-((1-oxo-3,4-dihydro-2,7-naphthyridin-2(1H)-yl)methyl)benzofuran-7-carboxylate]	2.9	3.1		
O=C(OCC(F)(F)F)c1ccc(F)c2cc(Cn3cnc4ccncc4c3=O)oc12 [EXAMPLE 356]	13	18		
CC(OC(=O)c1cc(Cl)cc2cc(CN3CCc4ccncc4C3=O)oc12)C(F)(F)F (centres unmarked) [EXAMPLE 337, 1,1,1-Trifluoropropan-2-yl 5-chloro-2-((1-oxo-3,4-dihydro-2,7-naphthyridin-2(1H)-yl)methyl)benzofuran-7-carboxylate]			9.8	13

More lines, now with the values ahead:

EC50 ([1]; Homo sapiens, THP1-Dual, 20 h) [µM]	EC50 ([2]; Homo sapiens, THP1-Dual, 20 h) [µM]	EC50 [1] [µM]	EC50 [2] [µM]	Compound
0.84	0.82			C[C@@H](OC(=O)c1cc(Cl)cc2cc(CNC(=O)c3cncc4[nH]cnc34)oc12)C(F)(F)F [EXAMPLE 265, (R)-1,1,1-Trifluoropropan-2-yl 2-((3H-imidazo[4,5-c]pyridine-7-carboxamido)methyl)-5-chlorobenzofuran-7-carboxylate]
4.1	3.6			COC(=O)c1cc(F)cc2cc(CNC(=O)c3cnccn3)oc12 [EXAMPLE 42, Methyl 5-fluoro-2-((pyrazine-2-carboxamido)methyl)benzofuran-7-carboxylate]
0.8	1.1			COC(=O)c1cc(Br)cc2cc(CNC(=O)c3cnn4cccnc34)oc12 [Example 80, Methyl 5-bromo-2-((pyrazolo[1,5-a]pyrimidine-3-carboxamido)methyl)benzofuran-7-carboxylate]
> 100	97			O=C(NCC(F)(F)F)c1cc(Cl)cc2cc(CNC(=O)c3cnn4cccnc34)oc12 [EXAMPLE 403, N-((5-Chloro-7-((2,2,2-trifluoroethyl)carbamoyl)benzofuran-2-yl)methyl)pyrazolo[1,5-a]pyrimidine-3-carboxamide]
3.5	3.5			CC(CC(F)(F)F)OC(=O)c1cc(Cl)cc2cc(CNC(=O)c3cnn4cccnc34)oc12 (single isomer, unassigned) [EXAMPLE 335, 4,4,4-Trifluorobutan-2-yl 5-chloro-2-((pyrazolo[1,5-a]pyrimidine-3-carboxamido)methyl)benzofuran-7-carboxylate]
		4	3.1	COC(=O)c1cc(Cl)cc2cc(CNC(=O)c3cnn4ccc(OC)nc34)oc12 [Example 51, Methyl 5-chloro-2-((5-methoxypyrazolo[1,5-a]pyrimidine-3-carboxamido)methyl) benzofuran-7-carboxylate]
1.1	1.1			O=C(OC1CCC1)c1cc(F)cc2cc(CNC(=O)c3cnn4cccnc34)oc12 [EXAMPLE 234, Cyclobutyl 5-fluoro-2-((pyrazolo[1,5-a]pyrimidine-3-carboxamido)methyl)benzofuran-7-carboxylate]
0.4	0.3			Cc1cc(C(=O)OCC(F)(F)F)c2oc(CNC(=O)c3cnn4cccnc34)cc2c1 [EXAMPLE 377, 2,2,2-Trifluoroethyl 5-methyl-2-((pyrazolo[1,5-a]pyrimidine-3-carboxamido)methyl)benzofuran-7-carboxylate]
		2.7	2.9	COC(=O)c1cc(Cl)cc2cc(CNC(=O)c3cnccn3)oc12 [Example 58, Methyl 5-chloro-2-((pyrazine-2-carboxamido)methyl) benzofuran-7-carboxylate]
0.75			0.7	CCOC(OC(=O)c1cc(F)cc2cc(CNC(=O)c3cnn4cccnc34)oc12)C(F)F (single isomer, unassigned) [EXAMPLE 323, 1-Ethoxy-2,2-difluoroethyl 5-fluoro-2-((pyrazolo[1,5-a]pyrimidine-3-carboxamido)methyl)benzofuran-7-carboxylate]
14	18			CC(C)OC(=O)c1cc(Cl)cc2cc(Cn3cnc4ccncc4c3=O)oc12 [EXAMPLE 262, Isopropyl 5-chloro-2-((4-oxopyrido[4,3-d]pyrimidin-3(4H)-yl)methyl)benzofuran-7-carboxylate]
79	> 100			O=C(NCc1cc2cc(Cl)cc(-c3nnn[nH]3)c2o1)c1cncc2cccnc12 [EXAMPLE 410, N-((5-Chloro-7-(1H-tetrazol-5-yl)benzofuran-2-yl)methyl)-1,6-naphthyridine-8-carboxamide]
		1.9	3.4	COC(OC(=O)c1cc(C(F)(F)F)cc2cc(CNC(=O)c3cnn4cccnc34)oc12)C(F)(F)F (single isomer, unassigned) [EXAMPLE 352, 2,2,2-Trifluoro-1-methoxyethyl 2-((pyrazolo[1,5-a]pyrimidine-3-carboxamido)methyl)-5-(trifluoromethyl)benzofuran-7-carboxylate]
0.87	0.88			O=C(Oc1ccccc1)c1cc(Cl)cc2cc(CNC(=O)c3cnn4cccnc34)oc12 [EXAMPLE 254, Phenyl 5-chloro-2-((pyrazolo[1,5-a]pyrimidine-3-carboxamido)methyl)benzofuran-7-carboxylate]
1.9	2.1			CCSC(=O)c1cc(F)cc2cc(CNC(=O)c3cnn4cccnc34)oc12 [EXAMPLE 387, S-Ethyl 5-fluoro-2-((pyrazolo[1,5-a]pyrimidine-3-carboxamido)methyl)benzofuran-7-carbothioate]
63	52			Cc1cc(C(=O)O)c2oc(CNC(=O)c3cnn4cccnc34)cc2c1 [EXAMPLE 158, 5-methyl-2-((pyrazolo[1,5-a]pyrimidine-3-carboxamido)methyl)benzofuran-7-carboxylic acid]
1.2	17			COC(=O)c1cc(Cl)cc2cc(CNC(=O)c3cncc4scnc34)oc12 [Example 72, Methyl 5-chloro-2-((thiazolo[5,4-c]pyridine-7-carboxamido)methyl)benzofuran-7-carboxylate]
